# Data as given in ChEMBL document CHEMBL1141373 (J Med Chem, 2007).
# The source made the active and inactive calls. No cut-off for these calls is given here.
# Key:
# [1] = biological target: T1, Glutamate receptor ionotropic, NMDA 2B (Homo sapiens, UniProt Q05586+Q13224); test: Displacement of [3H](E)-N1-(2-methoxybenzyl)cinnamamidine from human NR2B expressed in Ltk- cells; type: cell-based
# [2] = Ratio of drug level in brain against plasma in hyperalgesic rat
# [3] = Drug level in hyperalgesic rat brain at 10 mg/kg, po after 1 hr; type: ADME, organism-based; parameters: dose 10 mg/kg, route oral; settings: read-out: Drug uptake
# [4] = system: Rattus norvegicus; test: Reversal of carrageenan-induced mechanical hyperalgesia in rat at 10 mg/kg, po after 1 hr; type: functional
# [5] = Drug level in hyperalgesic rat plasma at 10 mg/kg, po after 1 hr; type: ADME, organism-based; parameters: dose 10 mg/kg, route oral
# [6] = biological target: T1, Glutamate receptor ionotropic, NMDA 2B; test: Antagonist activity at human NR2B expressed in Ltk- cells by calcium flux assay; type: functional, cell-based
# [7] = Half life in rhesus monkey at 1 mg/kg, iv; type: ADME, organism-based, Macaca mulatta; parameters: dose 1 mg/kg, route intravenous; settings: in vivo
# [8] = system: Rhesus monkey; test: AUC in rhesus monkey at 1 mg/kg, iv; type: ADME, organism-based, Macaca mulatta, Plasma; parameters: dose 1 mg/kg, route intravenous; settings: in vivo
# [9] = Half life in Sprague-Dawley rat at 2 mg/kg, iv; type: ADME, organism-based; parameters: dose 2 mg/kg, route intravenous; settings: in vivo
# [10] = system: Rattus norvegicus; test: AUC in Sprague-Dawley rat at 2 mg/kg, iv; type: ADME, organism-based, Plasma; parameters: dose 2 mg/kg, route intravenous; settings: in vivo
# [11] = Cmax in Beagle dog at 1 mg/kg, po; type: ADME, organism-based, Canis lupus familiaris; parameters: dose 1 mg/kg, route oral; settings: in vivo
# [12] = Oral bioavailability in Beagle dog at 1 mg/kg, po; type: ADME, organism-based, Canis lupus familiaris; settings: in vivo
# [13] = Half life in Beagle dog at 1 mg/kg, iv; type: ADME, organism-based, Canis lupus familiaris; parameters: dose 1 mg/kg, route intravenous; settings: in vivo
# [14] = system: Canis familiaris; test: AUC in Beagle dog at 1 mg/kg, iv; type: ADME, organism-based, Canis lupus familiaris, Plasma; parameters: dose 1 mg/kg, route intravenous; settings: in vivo
# [15] = Cmax in Sprague-Dawley rat at 10 mg/kg, po; type: ADME, organism-based; parameters: dose 10 mg/kg, route oral; settings: in vivo
# [16] = Oral bioavailability in Sprague-Dawley rat at 10 mg/kg, po; type: ADME, organism-based; settings: in vivo
# [17] = Cmax in rhesus monkey at 1 mg/kg, po; type: ADME, organism-based, Macaca mulatta; parameters: dose 1 mg/kg, route oral; settings: in vivo
# [18] = Oral bioavailability in rhesus monkey at 1 mg/kg, po; type: ADME, organism-based, Macaca mulatta; settings: in vivo
# [19] = system: Rattus norvegicus; test: Reversal of carrageenan-induced mechanical hyperalgesia in iv dosed rat after 15 mins; type: functional
# [20] = Drug level in hyperalgesic rat plasma at 1 mg/kg, po after 15 mins; type: ADME, organism-based; parameters: dose 1 mg/kg, route oral
# [21] = Drug level in hyperalgesic rat brain at 1 mg/kg, po after 15 mins; type: ADME, organism-based; parameters: dose 1 mg/kg, route oral; settings: read-out: Drug uptake
# [22] = system: Rattus norvegicus; test: […] in rat measured as motor impairment upto 100 mg/kg, po by rotarod assay; type: functional, organism-based; parameters: dose 100 mg/kg
# [23] = system: Rattus norvegicus; test: Reversal of allodynia in rat spinal nerve ligation model at 3 mg/kg, iv; type: functional, organism-based; parameters: dose 3 mg/kg
# [24] = system: Rattus norvegicus; test: Reversal of allodynia in rat spinal nerve ligation model at 10 mg/kg, iv; type: functional, organism-based; parameters: dose 10 mg/kg
# [25] = system: Rattus norvegicus; test: Effect on allodynia in rat spinal nerve ligation model at 30 mg/kg, po; type: functional, organism-based; parameters: dose 30 mg/kg
# [26] = biological target: Glutamate receptor ionotropic, NMDA 2B (Rattus norvegicus) (UniProt Q00960); test: Receptor occupancy ex vivo by displacement of [3H](E)-N1-(2-methoxybenzyl)-cinnamamidine binding from NR2B in rat brain at 10 uM; type: tissue-based
# [27] = Plasma protein binding in rat; type: ADME, cell-free; settings: read-out: PPB (converted)
# [28] = system: Rattus norvegicus; test: Reversal of carrageenan-induced mechanical hyperalgesia in rat at 3 mg/kg, po in presence of indomethacin; type: functional, organism-based; parameters: dose 3 mg/kg
# [29] = system: Rattus norvegicus; test: Reversal of carrageenan-induced mechanical hyperalgesia in rat at 3 mg/kg, po in presence of morphine; type: functional, organism-based; parameters: dose 3 mg/kg
# [30] = system: Rattus norvegicus; test: Plasma concentration in haloperidol-induced cataleptic rat at 30 mg/kg, po; type: ADME, organism-based; parameters: dose 30 mg/kg, route oral; settings: in vivo
# [31] = system: Ltk-; test: Activity at human NR1a expressed in Ltk- cells by patch clamp assay upto 30 uM; type: cell-based
# [32] = biological target: Glutamate receptor ionotropic, NMDA 2A (Homo sapiens) (UniProt Q12879); test: Activity at human NR2A expressed in Ltk- cells by patch clamp assay upto 30 uM; type: cell-based
# [33] = biological target: Glutamate receptor ionotropic, NMDA 2C (Homo sapiens) (UniProt Q14957); test: Activity at human NR2C expressed in Ltk- cells by patch clamp assay upto 30 uM; type: cell-based
# [34] = biological target: Glutamate receptor ionotropic, NMDA 2D (Homo sapiens) (UniProt O15399); test: Activity at human NR2D expressed in Ltk- cells by patch clamp assay upto 30 uM; type: cell-based
# [35] = biological target: Glutamate receptor ionotropic, NMDA 2A (Homo sapiens, UniProt Q05586+Q12879); test: Activity at human NR2A expressed in Ltk- cells by calcium flux assay; type: cell-based
# Chain of Glutamate receptor ionotropic, NMDA 2A (Q12879 whole entry, one chain of several): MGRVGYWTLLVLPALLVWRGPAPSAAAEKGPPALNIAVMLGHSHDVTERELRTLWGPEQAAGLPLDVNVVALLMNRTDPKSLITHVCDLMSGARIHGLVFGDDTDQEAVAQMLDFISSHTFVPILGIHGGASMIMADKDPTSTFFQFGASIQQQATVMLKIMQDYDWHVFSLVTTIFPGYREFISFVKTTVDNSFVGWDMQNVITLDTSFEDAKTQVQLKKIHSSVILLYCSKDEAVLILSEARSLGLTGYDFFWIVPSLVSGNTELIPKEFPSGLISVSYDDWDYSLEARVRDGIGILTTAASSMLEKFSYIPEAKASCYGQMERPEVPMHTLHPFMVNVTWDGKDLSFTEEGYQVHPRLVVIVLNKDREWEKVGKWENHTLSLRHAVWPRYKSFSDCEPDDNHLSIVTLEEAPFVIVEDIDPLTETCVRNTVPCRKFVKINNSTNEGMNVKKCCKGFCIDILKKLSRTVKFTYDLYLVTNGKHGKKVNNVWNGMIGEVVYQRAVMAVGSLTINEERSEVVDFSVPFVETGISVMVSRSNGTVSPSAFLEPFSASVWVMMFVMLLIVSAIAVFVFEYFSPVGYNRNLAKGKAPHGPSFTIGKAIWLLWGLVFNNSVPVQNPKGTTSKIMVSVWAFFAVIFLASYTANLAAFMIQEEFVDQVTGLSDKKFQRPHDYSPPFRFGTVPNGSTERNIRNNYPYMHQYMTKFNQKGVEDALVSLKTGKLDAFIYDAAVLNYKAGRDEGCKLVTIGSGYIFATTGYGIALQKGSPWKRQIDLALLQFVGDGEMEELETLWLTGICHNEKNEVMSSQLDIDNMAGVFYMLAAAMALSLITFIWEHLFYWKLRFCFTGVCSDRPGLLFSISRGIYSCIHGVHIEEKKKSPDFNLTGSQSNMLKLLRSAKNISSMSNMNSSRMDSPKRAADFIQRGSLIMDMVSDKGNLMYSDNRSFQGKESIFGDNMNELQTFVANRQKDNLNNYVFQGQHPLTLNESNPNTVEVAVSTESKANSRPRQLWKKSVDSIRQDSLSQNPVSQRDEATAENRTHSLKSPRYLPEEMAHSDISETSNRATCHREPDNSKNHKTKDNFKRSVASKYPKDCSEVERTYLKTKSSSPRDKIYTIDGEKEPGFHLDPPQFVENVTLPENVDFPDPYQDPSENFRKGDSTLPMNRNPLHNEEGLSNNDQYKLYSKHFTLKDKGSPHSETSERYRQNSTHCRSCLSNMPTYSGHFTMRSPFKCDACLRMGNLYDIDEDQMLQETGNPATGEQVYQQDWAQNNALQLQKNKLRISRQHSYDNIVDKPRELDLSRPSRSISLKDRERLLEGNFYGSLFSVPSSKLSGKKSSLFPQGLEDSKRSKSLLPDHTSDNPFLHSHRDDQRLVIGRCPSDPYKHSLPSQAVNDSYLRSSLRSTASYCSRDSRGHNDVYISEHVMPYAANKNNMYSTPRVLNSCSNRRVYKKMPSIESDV
# [36] = biological target: Voltage-gated inwardly rectifying potassium channel KCNH2 (Homo sapiens, UniProt Q12809)
# Description: Displacement of [35S]MK-499 from hERG potassium channel expressed in HEK293 cells
# [37] = Plasma concentration in rat at 30 mg/kg, po after 1 hr; type: ADME, organism-based; parameters: dose 30 mg/kg, route oral
# [38] = Drug level in rat brain at 30 mg/kg, po after 1 hr; type: ADME, organism-based; parameters: dose 30 mg/kg, route oral; settings: read-out: Drug uptake
# [39] = biological target: Cytochrome P450 2D6 (Homo sapiens, UniProt P10635); test: Inhibition of CYP2D6 in human liver microsomes
# Chain of Cytochrome P450 2D6 (P10635 whole entry): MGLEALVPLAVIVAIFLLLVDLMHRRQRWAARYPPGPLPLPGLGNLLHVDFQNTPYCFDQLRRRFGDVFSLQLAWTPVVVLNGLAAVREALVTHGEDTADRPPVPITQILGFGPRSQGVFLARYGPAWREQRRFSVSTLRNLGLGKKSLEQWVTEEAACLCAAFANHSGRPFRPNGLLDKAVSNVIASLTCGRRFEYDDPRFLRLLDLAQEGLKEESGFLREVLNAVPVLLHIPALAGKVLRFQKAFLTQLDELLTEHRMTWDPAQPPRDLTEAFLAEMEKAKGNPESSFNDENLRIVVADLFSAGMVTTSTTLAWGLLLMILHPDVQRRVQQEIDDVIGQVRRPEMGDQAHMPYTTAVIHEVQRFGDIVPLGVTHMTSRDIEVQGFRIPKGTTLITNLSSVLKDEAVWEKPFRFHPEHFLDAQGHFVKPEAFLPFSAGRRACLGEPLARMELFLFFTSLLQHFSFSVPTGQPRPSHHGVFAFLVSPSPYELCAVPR
# [40] = biological target: Cytochrome P450 3A4 (Homo sapiens, UniProt P08684); test: Inhibition of CYP3A4 in human liver microsomes
# Chain of Cytochrome P450 3A4 (P08684 whole entry): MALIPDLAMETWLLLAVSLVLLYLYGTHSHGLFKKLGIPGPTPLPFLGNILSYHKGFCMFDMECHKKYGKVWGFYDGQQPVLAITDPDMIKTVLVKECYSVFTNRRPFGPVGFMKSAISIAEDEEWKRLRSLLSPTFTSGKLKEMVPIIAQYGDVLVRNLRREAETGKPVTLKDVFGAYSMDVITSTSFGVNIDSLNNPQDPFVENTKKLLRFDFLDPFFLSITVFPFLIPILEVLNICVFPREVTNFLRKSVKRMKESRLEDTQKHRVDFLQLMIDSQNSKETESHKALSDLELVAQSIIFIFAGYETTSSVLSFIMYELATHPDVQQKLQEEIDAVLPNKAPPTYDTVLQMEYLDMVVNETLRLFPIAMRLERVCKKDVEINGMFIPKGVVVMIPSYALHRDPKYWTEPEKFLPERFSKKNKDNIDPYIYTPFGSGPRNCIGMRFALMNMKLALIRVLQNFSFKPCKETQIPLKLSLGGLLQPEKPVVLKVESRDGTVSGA
# [41] = species: Homo sapiens; test: Selectivity for human NR2B over hERG
# [42] = Half life in Beagle dog at 0.5 mg/kg, iv; type: ADME, organism-based, Canis lupus familiaris; parameters: dose 0.5 mg/kg, route intravenous; settings: in vivo
# [43] = system: Canis familiaris; test: AUC in Beagle dog at 0.5 mg/kg, iv; type: ADME, organism-based, Canis lupus familiaris, Plasma; parameters: dose 0.5 mg/kg, route intravenous; settings: in vivo
# [44] = system: Rattus norvegicus; test: Reversal of carrageenan-induced mechanical hyperalgesia in po dosed rat; type: functional
# [45] = system: Rattus norvegicus; test: Reversal of carrageenan-induced mechanical hyperalgesia in iv dosed rat; type: functional
# [46] = biological target: Cytochrome P450 2C9 (Homo sapiens, UniProt P11712)
# Chain of Cytochrome P450 2C9 (P11712 whole entry): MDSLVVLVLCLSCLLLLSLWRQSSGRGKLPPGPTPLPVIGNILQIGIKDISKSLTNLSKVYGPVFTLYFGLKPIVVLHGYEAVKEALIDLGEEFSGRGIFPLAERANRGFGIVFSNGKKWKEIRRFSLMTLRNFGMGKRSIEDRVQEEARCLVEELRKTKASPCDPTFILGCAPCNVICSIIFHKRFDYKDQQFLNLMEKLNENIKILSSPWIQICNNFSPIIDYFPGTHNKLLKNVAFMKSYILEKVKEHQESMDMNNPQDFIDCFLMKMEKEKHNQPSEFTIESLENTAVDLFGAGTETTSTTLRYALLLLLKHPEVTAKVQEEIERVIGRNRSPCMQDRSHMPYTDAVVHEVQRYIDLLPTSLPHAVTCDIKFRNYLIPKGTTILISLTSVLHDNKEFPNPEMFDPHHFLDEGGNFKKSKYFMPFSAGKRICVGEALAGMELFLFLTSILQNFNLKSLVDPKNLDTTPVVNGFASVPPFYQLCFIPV
# Description: Inhibition of CYP2C9 in human liver microsomes
# T1 sequence (Q13224 whole entry, one chain of several): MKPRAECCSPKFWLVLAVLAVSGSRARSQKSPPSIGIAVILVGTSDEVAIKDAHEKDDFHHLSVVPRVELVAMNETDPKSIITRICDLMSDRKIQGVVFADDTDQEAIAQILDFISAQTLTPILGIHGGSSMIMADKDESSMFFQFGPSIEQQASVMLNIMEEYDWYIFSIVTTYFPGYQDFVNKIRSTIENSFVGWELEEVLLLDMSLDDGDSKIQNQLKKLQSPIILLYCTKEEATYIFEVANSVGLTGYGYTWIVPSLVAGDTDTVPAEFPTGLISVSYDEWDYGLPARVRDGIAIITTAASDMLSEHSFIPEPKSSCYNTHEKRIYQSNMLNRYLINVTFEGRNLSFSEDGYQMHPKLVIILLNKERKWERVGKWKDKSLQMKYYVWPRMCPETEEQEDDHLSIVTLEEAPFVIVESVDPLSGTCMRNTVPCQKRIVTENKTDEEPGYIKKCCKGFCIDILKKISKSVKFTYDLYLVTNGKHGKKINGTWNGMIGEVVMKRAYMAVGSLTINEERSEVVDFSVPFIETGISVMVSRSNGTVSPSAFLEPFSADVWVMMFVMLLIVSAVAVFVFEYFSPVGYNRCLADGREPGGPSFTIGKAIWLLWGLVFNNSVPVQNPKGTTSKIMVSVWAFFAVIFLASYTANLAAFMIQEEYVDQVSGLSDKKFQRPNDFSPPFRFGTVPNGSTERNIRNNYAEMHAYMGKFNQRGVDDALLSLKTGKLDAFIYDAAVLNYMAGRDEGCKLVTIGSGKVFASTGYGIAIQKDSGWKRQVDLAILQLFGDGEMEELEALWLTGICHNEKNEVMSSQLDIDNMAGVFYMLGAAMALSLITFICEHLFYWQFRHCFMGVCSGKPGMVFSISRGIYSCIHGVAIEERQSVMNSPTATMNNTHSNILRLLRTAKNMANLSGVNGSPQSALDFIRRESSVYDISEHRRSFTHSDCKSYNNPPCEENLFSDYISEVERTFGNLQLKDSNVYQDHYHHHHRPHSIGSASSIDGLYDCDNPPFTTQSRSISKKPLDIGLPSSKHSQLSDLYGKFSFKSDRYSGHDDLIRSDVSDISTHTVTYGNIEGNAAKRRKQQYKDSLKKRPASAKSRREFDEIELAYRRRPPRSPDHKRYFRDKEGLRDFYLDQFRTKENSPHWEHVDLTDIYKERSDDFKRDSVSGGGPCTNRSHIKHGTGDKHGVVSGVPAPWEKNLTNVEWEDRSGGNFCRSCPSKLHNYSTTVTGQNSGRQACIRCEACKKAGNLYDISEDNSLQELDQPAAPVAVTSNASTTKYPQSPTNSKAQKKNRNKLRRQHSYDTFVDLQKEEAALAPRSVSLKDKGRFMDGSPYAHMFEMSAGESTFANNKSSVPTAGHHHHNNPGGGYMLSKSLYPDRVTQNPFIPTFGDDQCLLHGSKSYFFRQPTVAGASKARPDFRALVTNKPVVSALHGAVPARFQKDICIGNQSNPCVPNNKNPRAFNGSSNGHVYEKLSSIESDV
structure (smiles),measurement,setting,value
Cc1ccc(COC(=O)N2CCC(Nc3ncccn3)CC2)cc1,Ki,[1],> 15000 nM
O=C(OCc1cccc(F)c1)N1CCC(CNc2ncccn2)CC1,Ki,[1],150 nM
O=C(OCCc1ccccc1)N1CCC(CNc2ncccn2)CC1,Ki,[1],227 nM
Cc1ccc(COC(=O)N2CCC(CNc3ncccn3)CC2)cc1,Kp,[2],1.4
same,concentration at 1 h,[3],850 nM
same,Activity,[4],50%
same,concentration at 1 h,[5],1800 nM
same,EC50,[6],5.6 nM
same,Ki,[1],3.4 nM
same,half-life,[7],132 min
same,AUC,[8],5.2 µM·h
same,half-life,[9],162 min
same,AUC,[10],7.1 µM·h
same,Cmax,[11],840 nM
same,bioavailability,[12],24%
same,half-life,[13],414 min
same,AUC,[14],7.5 µM·h
same,Cmax,[15],3.9 µM
same,bioavailability,[16],45%
same,Cmax,[17],600 nM
same,bioavailability,[18],26%
same,ED50,[19],1 mg/kg
same,concentration at […],[20],960 nM
same,concentration at […],[21],510 nM
same,Activity,[22],inactive
same,Activity,[23],Active
same,Activity,[24],Active
same,Activity,[25],Active
same,Activity,[26],Active
same,fraction unbound,[27],0.153
same,Activity,[28],Active
same,Activity,[29],Active
same,concentration,[30],10.2 µM
same,Activity,[31],< 30%
same,Activity,[32],< 30%
same,Activity,[33],< 30%
same,Activity,[34],< 30%
Cc1ccc(COC(=O)N2CCC(CN(C)c3ncccn3)CC2)cc1,Ki,[1],2100 nM
N#CN=C(NCc1ccccc1)NN1CCC(CNc2ncccn2)CC1,Ki,[1],3100 nM
Cc1cccc(COC(=O)N2CCC(CNc3ncccn3)CC2)c1,Ki,[1],206 nM
c1ccc(COc2ccc(CCNc3ccncc3)cc2)cc1,IC50,[6],102 nM
same,IC50,[35],> 20 µM
same,Ki,[1],93 nM
same,IC50,[36],130 nM
O=C(CCc1ccccc1)N1CCC(CNc2ncccn2)CC1,Ki,[1],310 nM
O=C(OCc1ccc(F)cc1)N1CCC(CNc2ncccn2)CC1,Ki,[1],18 nM
O=C(OCc1ccccc1)N1CCC(CNc2ccncc2)CC1,EC50,[6],1.6 nM
same,EC50,[35],> 10 µM
same,Ki,[1],10.6 nM
same,concentration at 1 h,[37],8.1 µM
same,concentration at 1 h,[38],11000 nM
same,IC50,[39],15 µM
same,IC50,[40],> 25 µM
same,Selectivity ratio,[41],90
same,half-life,[9],84 min
same,AUC,[10],1.9 µM·h
same,Cmax,[11],50 nM
same,bioavailability,[12],11%
same,half-life,[42],390 min
same,AUC,[43],1.7 µM·h
same,Cmax,[15],5.2 µM
same,bioavailability,[16],> 100%
same,ED50,[44],10 mg/kg
same,ED50,[45],3 mg/kg
same,IC50,[46],6.5 µM
CC(C)c1ccc(COC(=O)N2CCC(CNc3ncccn3)CC2)cc1,Ki,[1],7.8 nM
COc1ccc(COC(=O)N2CCC(CNc3ncccn3)CC2)cc1,Ki,[1],460 nM
O=C(OC1Cc2ccccc2C1)N1CCC(CNc2ncccn2)CC1,Ki,[1],23 nM
O=C(OCc1ccccc1F)N1CCC(CNc2ncccn2)CC1,Ki,[1],18 nM
O=C(OCc1ccccc1)N1CCC(CNc2ccccn2)CC1,Ki,[1],37 nM
same,concentration at 1 h,[37],0.18 µM
same,concentration at 1 h,[38],170 nM
same,IC50,[39],> 25 µM
same,IC50,[40],> 25 µM
same,IC50,[46],> 25 µM
Cc1ccc(COC(=O)N2CCC(COc3ncccn3)CC2)cc1,Ki,[1],7400 nM
O=C(OCc1ccccc1)N1CCC(CNc2cccnc2)CC1,Ki,[1],180 nM
same,IC50,[39],1.7 µM
same,IC50,[40],9.1 µM
same,IC50,[46],12 µM
O=C(NCc1ccccc1)N1CCC(CNc2ncccn2)CC1,Ki,[1],1170 nM
c1ccc(CCCN2CCC(CNc3ncccn3)CC2)cc1,Ki,[1],266 nM
O=C(OCc1ccccc1)N1CCC(CNc2ncccn2)CC1,Ki,[1],23 nM
same,concentration at 1 h,[37],7.2 µM
same,concentration at 1 h,[38],3100 nM
same,IC50,[39],> 25 µM
same,IC50,[40],> 25 µM
same,IC50,[46],> 25 µM
O=C(OCc1ccccc1)N1CCC(Cc2nc3ccccc3[nH]2)CC1,Ki,[1],220 nM
CCc1ccc(COC(=O)N2CCC(CNc3ncccn3)CC2)cc1,Ki,[1],3.7 nM
O=C(OCc1ccccc1)N1CCC(CNc2nccs2)CC1,Ki,[1],122 nM
same,IC50,[39],> 10 µM
same,IC50,[40],> 10 µM
same,IC50,[46],> 10 µM
O=C(OCc1ccccc1)N1CCC(CNc2cnccn2)CC1,Ki,[1],14 nM
same,IC50,[39],1.7 µM
same,IC50,[40],22 µM
same,IC50,[46],12 µM
O=C(OCc1ccccc1)N1CCC(CNc2nncs2)CC1,Ki,[1],190 nM
same,IC50,[39],> 25 µM
O=C(OCc1ccccc1)N1CCC(CNc2ccncn2)CC1,Ki,[1],75 nM
same,concentration at 1 h,[37],1.1 µM
same,concentration at 1 h,[38],700 nM
same,IC50,[39],1.3 µM
same,IC50,[46],0.5 µM
Cc1ccccc1COC(=O)N1CCC(CNc2ncccn2)CC1,Ki,[1],227 nM
CC(OC(=O)N1CCC(CNc2ncccn2)CC1)c1ccccc1 (racemic),Ki,[1],540 nM
CC(C)(C)c1ccc(COC(=O)N2CCC(CNc3ncccn3)CC2)cc1,Ki,[1],720 nM
